Experimental data: patent US8614234B2, “Compounds as tyrosine kinase modulators” (Allergan, Inc., priority 2009, dated 2013)

Biological target: PDGFβ (Homo sapiens (Human), UniProt P09619)
Experiment: PDGF stimulated Ca2+ signal in vitro (PDGFβ cellular, FLIPR, NHDF-Ad)
Format: cell-based
Conditions: PDGF stimulation 10 ng/mL, intracellular calcium

PDGFβ, sequence (P09619 33-1106): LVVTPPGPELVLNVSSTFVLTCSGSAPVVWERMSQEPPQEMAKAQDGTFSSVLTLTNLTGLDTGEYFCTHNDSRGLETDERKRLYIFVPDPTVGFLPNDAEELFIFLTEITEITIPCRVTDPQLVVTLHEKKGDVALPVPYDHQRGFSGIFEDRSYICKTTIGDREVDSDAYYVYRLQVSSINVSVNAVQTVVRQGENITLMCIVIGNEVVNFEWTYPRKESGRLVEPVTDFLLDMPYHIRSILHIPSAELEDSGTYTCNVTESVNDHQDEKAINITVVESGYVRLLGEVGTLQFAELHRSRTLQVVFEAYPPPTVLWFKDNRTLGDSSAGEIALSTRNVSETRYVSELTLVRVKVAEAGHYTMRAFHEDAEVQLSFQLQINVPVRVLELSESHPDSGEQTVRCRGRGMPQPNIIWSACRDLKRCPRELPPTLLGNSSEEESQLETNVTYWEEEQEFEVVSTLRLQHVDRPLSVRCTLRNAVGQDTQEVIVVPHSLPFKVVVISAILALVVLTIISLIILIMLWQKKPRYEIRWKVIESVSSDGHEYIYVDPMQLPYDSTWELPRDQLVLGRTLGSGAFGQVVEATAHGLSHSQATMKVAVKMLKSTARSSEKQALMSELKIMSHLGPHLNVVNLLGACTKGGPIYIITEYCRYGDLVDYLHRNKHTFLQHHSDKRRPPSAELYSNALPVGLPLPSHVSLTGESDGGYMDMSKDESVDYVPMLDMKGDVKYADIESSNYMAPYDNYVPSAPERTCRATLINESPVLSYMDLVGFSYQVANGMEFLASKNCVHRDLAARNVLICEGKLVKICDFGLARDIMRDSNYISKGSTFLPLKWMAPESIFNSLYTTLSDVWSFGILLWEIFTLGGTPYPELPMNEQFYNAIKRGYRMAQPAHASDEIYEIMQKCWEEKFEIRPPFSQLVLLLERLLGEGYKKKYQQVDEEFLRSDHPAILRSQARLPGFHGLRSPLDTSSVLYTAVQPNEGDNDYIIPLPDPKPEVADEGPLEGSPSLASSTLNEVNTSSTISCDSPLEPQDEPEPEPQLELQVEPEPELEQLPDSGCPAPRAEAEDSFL

| IC50 [µM] | Structure (SMILES) |
| --- | --- |
| 0.021 | Cc1cccc(NC(=O)Nc2ccc(Oc3ccnc(-c4cc(C(=O)N5CCC[C@@H](O)C5)c[nH]4)c3)cc2)c1 (stereo in doubt) [Example 90, 1-{4-[(2-{4-[(3-hydroxypiperidin-1-yl)carbonyl]-1H-pyrrol-2-yl}pyridin-4-yl)oxy]phenyl}-3-(3-methylphenyl)urea] |
| 0.038 | Cc1cccc(NC(=O)Nc2ccc(Oc3ccnc(-c4cc(C(=O)N5CC[C@@H](O)C5)c[nH]4)c3)cc2)c1 (stereo in doubt) [Example 91, 1-{4-[(2-{4-[(3-hydroxypyrrolidin-1-yl)carbonyl]-1H-pyrrol-2-yl}pyridin-4-yl)oxy]phenyl}-3-(3-methylphenyl)urea] |
| 0.073 | Cc1ccoc1C(=O)Nc1cccc(Oc2ccnc(-c3cc(C(=O)NCC(O)CO)c[nH]3)c2)c1 (stereo not shown) [Example 15, N-(2,3-dihydroxypropyl)-5-(4-{3-[(3-methyl-2-furoyl)amino]phenoxy}pyridin-2-yl)-1H-pyrrole-3-carboxamide] |
| 0.061 | Cc1ccoc1C(=O)Nc1cccc(Oc2ccnc(-c3cc(C(=O)NO)c[nH]3)c2)c1 [Example 17, N-hydroxy-5-(4-{3-[(3-methyl-2-furoyl)amino]phenoxy}pyridin-2-yl)-1H-pyrrole-3-carboxamide] |
| 0.135 | Cc1ccc(F)c(NC(=O)c2cccc(Oc3ccnc(-c4cc(C(=O)O)c[nH]4)c3)c2)c1 [Example 19, 5-{4-[3-(2-Fluoro-5-methyl-phenylcarbamoyl)-phenoxy]-pyridin-2-yl}-1H-pyrrole-3-carboxylic acid] |
| 0.039 | Cc1ccoc1C(=O)Nc1cccc(Oc2ccnc(-c3cc(C(=O)OCC(O)CO)c[nH]3)c2)c1 (stereo not shown) [Example 21, 2,3-dihydroxypropyl 5-(4-{3-[(3-methyl-2-furoyl)amino]phenoxy}pyridin-2-yl)-1H-pyrrole-3-carboxylate] |
| 0.105 | Cc1cccc(NC(=O)c2cccc(Oc3ccnc(-c4cc(C(=O)O)c[nH]4)c3)c2)c1 [Example 22, 5-[4-(3-m-Tolylcarbamoyl-phenoxy)-pyridin-2-yl]-1H-pyrrole-3-carboxylic acid] |
| 0.094 | Cc1ccoc1C(=O)Nc1cccc(Oc2ccnc(-c3cc(C(=O)N=S(C)(C)=O)c[nH]3)c2)c1 [Example 30, N-[dimethyl(oxido)-lambda˜4˜-sulfanylidene]-5-(4-{3-[(3-methyl-2-furoyl)amino]phenoxy}pyridin-2-yl)-1H-pyrrole-3-carboxamide] |
| 0.191 | Cc1ccc(F)c(NC(=O)Nc2ccc(Oc3ccnc(-c4cc(C(=O)NCCCC(=O)NCC(O)CO)c[nH]4)c3)cc2)c1 (stereo not shown) [Example 54, N-{4-[(2,3-dihydroxypropyl)amino]-4-oxobutyl}-5-{4-[4-({[(2-fluoro-5-methylphenyl)amino]carbonyl}amino)phenoxy]pyridin-2-yl}-1H-pyrrole-3-carboxamide] |
| 0.026 | Cc1ccc(F)c(NC(=O)Nc2ccc(Oc3ccnc(-c4cc(C(=O)NCCCC(N)=O)c[nH]4)c3)cc2)c1 [Example 55, N-(4-amino-4-oxobutyl)-5-{4-[4-({[(2-fluoro-5-methylphenyl)amino]carbonyl}amino)phenoxy]pyridin-2-yl}-1H-pyrrole-3-carboxamide] |
| 0.039 | Cc1cccc(NC(=O)Nc2ccc(Oc3ccnc(-c4cc(C(=O)NCC(O)CO)c[nH]4)c3)cc2)c1 (stereo not shown) [Example 92, N-(2,3-dihydroxypropyl)-5-{4-[4-({[(3-methylphenyl)amino]carbonyl}amino)phenoxy]pyridin-2-yl}-1H-pyrrole-3-carboxamide] |
| 0.014 | CCNC(=O)c1c[nH]c(-c2cc(Oc3ccc(NC(=O)Nc4cccc(C)c4)cc3)ccn2)c1 [Example 93, N-ethyl-5-{4-[4-({[(3-methylphenyl)amino]carbonyl}amino)phenoxy]pyridin-2-yl}-1H-pyrrole-3-carboxamide] |
| 0.069 | Cc1ccc(F)c(NC(=O)Nc2ccc(Oc3ccnc(-c4cc(C(=O)O)c[nH]4)c3)cc2F)c1 [Example 96, 5-{4-[3-fluoro-4-({[(2-fluoro-5-methylphenyl)amino]carbonyl}amino)phenoxy]pyridin-2-yl}-1H-pyrrole-3-carboxylic acid] |
| 0.082 | Cc1ccc(F)c(NC(=O)Nc2ccc(Oc3ccnc(-c4cc(C(=O)N=S(C)(C)=O)c[nH]4)c3)cc2)c1 [Example 101, N-[dimethyl(oxido)-lambda˜4˜-sulfanylidene]-5-{4-[4-({[(2-fluoro-5-methylphenyl)amino]carbonyl}amino)phenoxy]pyridin-2-yl}-1H-pyrrole-3-carboxamide] |
| 0.008 | COC(=O)[C@@H]1CCCN1CCNC(=O)c1c[nH]c(-c2cc(Oc3ccc(NC(=O)Nc4cc(C)ccc4F)cc3)ccn2)c1 [Example 102, methyl (2S)-1-(2-{[(5-{4-[4-({[(2-fluoro-5-methylphenyl)amino]carbonyl}amino)phenoxy]pyridin-2-yl}-1H-pyrrol-3-yl)carbonyl]amino}ethyl)pyrrolidine-2-carboxylate] |
| 0.043 | Cc1ccc(F)c(NC(=O)Nc2ccc(Oc3ccnc(-c4cc(C(=O)NO)c[nH]4)c3)cc2)c1 [Example 108, 5-{4-[4-({[(2-fluoro-5-methylphenyl)amino]carbonyl}amino)phenoxy]pyridin-2-yl}-N-hydroxy-1H-pyrrole-3-carboxamide] |
| 0.032 | Cc1ccc(F)c(NC(=O)Nc2ccc(Oc3ccnc(-c4cc(C(=O)NCCCO)c[nH]4)c3)cc2)c1 [Example 110, 5-{4-[4-({[(2-fluoro-5-methylphenyl)amino]carbonyl}amino)phenoxy]pyridin-2-yl}-N-(3-hydroxypropyl)-1H-pyrrole-3-carboxamide] |
| 0.044 | Cc1cccc(NC(=O)Nc2ccc(Oc3ccnc(-c4cc(C(=O)O)c[nH]4)c3)cc2)c1 [Example 115, 5-{4-[4-({[(3-methylphenyl)amino]carbonyl}amino)phenoxy]pyridin-2-yl}-1H-pyrrole-3-carboxylic acid] |
| 0.102 | O=C(Nc1ccc(Oc2ccnc(-c3cc(C(=O)O)c[nH]3)c2)cc1)Nc1ccc(Cl)c(C(F)(F)F)c1 [Example 121, 5-(4-{4-[({[4-chloro-3-(trifluoromethyl)phenyl]amino}carbonyl)amino]phenoxy}pyridin-2-yl)-1H-pyrrole-3-carboxylic acid] |
| 0.085 | Cc1ccc(F)c(NC(=O)Nc2ccc(Oc3ccnc(-c4csc(C(=O)O)c4)c3)cc2)c1 [Example 123, 4-{4-[4-({[(2-fluoro-5-methylphenyl)amino]carbonyl}amino)phenoxy]pyridin-2-yl}thiophene-2-carboxylic acid] |
| 0.091 | Cc1ccc(F)c(NC(=O)Nc2ccc(Oc3ccnc(-c4cc(C(=O)NCC(O)CO)c[nH]4)c3)cc2)c1 (stereo not shown) [Example 127, N-(2,3-dihydroxypropyl)-5-{4-[4-({[(2-fluoro-5-methylphenyl)amino]carbonyl}amino)phenoxy]pyridin-2-yl}-1H-pyrrole-3-carboxamide] |
| 0.032 | Cc1ccc(F)c(NC(=O)Nc2ccc(Oc3ccnc(-c4cc(C(=O)OCC(O)CO)c[nH]4)c3)cc2)c1 (stereo not shown) [Example 130, 2,3-dihydroxypropyl 5-{4-[4-({[(2-fluoro-5-methylphenyl)amino]carbonyl}amino)phenoxy]pyridin-2-yl}-1H-pyrrole-3-carboxylate] |
